Measurements reported in patent publication US20090011424A1, “Cancer-suppressing agents” (Tokyo Medical and Dental University, priority 2005, published 2009).

System: NR1I2 gene
Experiment: RT-PCR of NR1I2 messenger RNA in 8 neuroblastoma cell lines cultured with 5-aza-dCyd
Format: cell-based, human
Conditions: 8 neuroblastoma cell lines lacking NR1I2 mRNA; 1 μM for 5 days
Description: Cell lines used were human-derived neuroblastoma cells SK-N-KS, SK-N-AS, SK-N-SH, SK-N-DZ, SH-SY5Y, MP-N-TS, MP-N-MS, KP-N-RT, KP-N-SIFA, KP-N-SILA, KP-N-TK, KP-N-YS, SMS-KCN, SMS-KAN, SJ-N-CG, NB-1, CHP134, IMR32, and GOTO (Saito-Ohara F, et al. Cancer Res., 63, 1876, 2003), which were derived from […] surgically excised samples. In addition, in order to obtain a material subjected to inhibition of DNA methylation, 5-aza-deoxycytidine (5-aza-dCyd) serving a DNA methyltransferase inhibitor was added to each cell at a concentration of 1 μM for 5 days during culture.
Under general culture conditions, 8 neuroblastoma cell lines lacking the expression of messenger RNA of NR1I2 gene were cultured with the addition of 5-aza-deoxycytidine (5-aza-dCyd) serving as a DNA methyltransferase inhibitor at a concentration of 1 μM for 5 days. The expression levels of messenger RNA of NR1I2 gene in the cells were compared with each other by RT-PCR (FIG. 4). As a control for the expression level obtained by RT-PCR, GAPDH was used.

Nc1ncn([C@H]2C[C@H](O)[C@@H](CO)O2)c(=O)n1 [5-aza-dCyd, 5-aza-deoxycytidine]
expression of messenger RNA of NR1I2 gene: expression of messenger RNA of NR1I2 genes was observed
